{"source": "patent US20220041665A1", "about": "“POLYNUCLEOTIDE AND USES THEREOF” (Helsingin yliopisto, priority 2019, published 2022)", "format_in_all_cases": "cell-based, human", "key": {"[1]": {"test_system": "A549 cells with tagged EGFR", "assay": "EGF uptake in A549 cells with tagged EGFR", "description": "A549 cells were seeded at 0.4×10^5 cells per 4-well for 3 days. Medium was changed to fresh medium with or without 0.5 mM IAA for 1 h. Cells were washed twice with ice-cold serum free medium with 1% BSA and 0.2 ml of 2 μg/ml Alexa Fluor™ 647 EGF complex (ThermoFisher, E35351) in serum free medium with 1% BSA was added. Cells were further incubated at 37° C. for 20 min before harvesting with trypsin. Samples were kept on ice before FACS analysis. Alexa Fluor™ 647 was excited with 640 nm laser and detected with 720/40 detector, analysing 20 000 cells per sample. Negative control samples were cells incubated in medium without EGF complex. Background subtracted mean fluorescence intensity was used for analysis."}, "[2]": {"test_system": "A431 cells with tagged DHC1", "assay": "Analysis of cell division in A431 cells with tagged DHC1", "description": "Cells were plated on μ-slide 8-well ibiTreat dishes at 0.1×10^5 cells per well 2 days before the experiment. On the experiment day, cells were loaded with 2 μM CellTracker™ Red CMTPX (Thermo, CAT #C34552) in complete medium for 15-30 min at 37° C. Medium was then changed to FluroBrite containing 10% FBS and incubated at 37° C. for 1-2 h before imaging to equilibrate the labelling. Cells were imaged with Nikon Eclipse Ti-E microscope equipped with 20× air objective, Nikon Perfect Focus System 3, Hamamatsu Flash 4.0 V2 scientific CMOS and Okolab stage top incubator system. Before recording, 6 fields for each of the 8 wells were selected with Celllracker™ Red fluorescence. IAA was then added at a final 0.5 mM concentration to IAA-treated cells, mixed well with pipetting, and time lapse imaging started immediately recording every 30 min for 16 h. Mitotic rounding cells were counted manually in the videos from 0.5 h to 6 h. Mitotic rounding cells without cell division were followed till 13 h."}, "[3]": {"test_system": "seipin-mEGFP", "assay": "FACS screen of auxin perceptive proteins and degrons (mean GFP intensity) in A431 cell pools", "settings": "cells expressing AtAFB2 and seipin-mEGFP with degron insertion; 0 h, 1 h, 16 h IAA", "description": "To search for an improved AID system to solve the issue, a pipeline was first established in human A431 cells to screen AID components (FIG. 2A). Various auxin perceptive proteins and degrons were selected for screening. Several TIR1 and AFB2 proteins from different plant species were tested, as well as degrons derived from AtIAA17 (SEQ ID NO: 3), these including amino acid (aa.) 65-132 (miniAID), aa. 62-109, aa. 71-114. All these degrons were included in the screen. […] These high affinity fragments were tested, assuming higher affinity might translate into more efficient inducible degradation. Degrons with KR dipeptide deletions were tested to see if they would have an effect on enhancing IAA binding affinity, IAA-inducible depletion or as part of a nuclear localization signal. […]\nFor FACS analysis, cells were seeded at 1:5 (for A431) or 1:3 (for A549) into 6-well plate in medium without selection on day 0. […] Cells were gated with SSC, FSC and trigger pulse width for singlets and 100 000 cells were analyzed for each sample. GFP was excited with 488 nm laser and detected with 530/40 detector; mCherry was excited with 561 nm lasers and detected with 615/20 detector. Data was analyzed with BD FACS Sortware. Background subtracted mean fluorescence intensity was used for analysis."}, "[4]": {"test_system": "seipin", "sequence (Q96G97+P93830 fused)": "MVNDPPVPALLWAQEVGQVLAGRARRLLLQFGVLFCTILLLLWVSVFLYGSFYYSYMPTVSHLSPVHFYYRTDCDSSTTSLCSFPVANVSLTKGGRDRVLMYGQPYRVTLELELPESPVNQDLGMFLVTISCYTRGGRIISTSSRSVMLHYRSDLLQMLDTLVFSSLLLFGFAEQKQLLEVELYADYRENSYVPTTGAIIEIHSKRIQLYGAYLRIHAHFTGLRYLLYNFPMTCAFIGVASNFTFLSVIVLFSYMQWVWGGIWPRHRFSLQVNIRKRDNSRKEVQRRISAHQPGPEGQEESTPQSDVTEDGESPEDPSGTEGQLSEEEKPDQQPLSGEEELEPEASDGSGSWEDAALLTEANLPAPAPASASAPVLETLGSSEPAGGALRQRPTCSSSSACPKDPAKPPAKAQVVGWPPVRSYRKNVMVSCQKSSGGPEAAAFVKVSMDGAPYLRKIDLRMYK", "assay": "Depletion of endogenous seipin tagged with mAID-mEGFP in A431 cells expressing OsTIR1", "settings": "cells expressing OsTIR1, no IAA", "source_text": "Initially seipin, a conserved transmembrane protein in the endoplasmic reticulum (ER) involved in lipid droplet (LD) biogenesis, was targeted for degradation. To rapidly deplete seipin from human A431 cells, an AID system, composed of TIR1 derived from Oryza sativa (OsTIR1) and mAID degron of 65 amino acids corresponding to AAs 68-132 of AtIAA17 (SEQ ID NO: 3), referred herein to as miniAID, was first employed. To this end, the endogenous seipin was homozygously tagged with mAID-mEGFP."}, "[5]": {"settings": "control cells without auxin perceptive protein"}}}
{"molecule": "O=C(O)Cc1c[nH]c2ccccc12", "note": "[IAA, indole-3-acetic acid]", "values": [{"measurement": "reduction of EGF uptake", "setting": "[1]; EGFR-AtAFB2 cells, 1 h IAA treatment (0.5 mM)", "result": 75, "unit": "%"}, {"measurement": "effect of IAA per se on EGF uptake", "setting": "[1]; [5]", "result": "did not affect"}, {"measurement": "fraction of mitotic rounding cells that completed cell division", "setting": "[2]; DHC1-AtAFB2 cells, after IAA addition for 30 min (0.5 mM)", "result": 0, "unit": "%"}, {"measurement": "effect of IAA per se on cell division", "setting": "[2]; [5]", "result": "did not affect"}]}
{"molecule": "aa.82-101: minimal truncated AtIAA7 degron, aa. 82-101 of SEQ ID NO: 1 (QVVGWPPVRNYRKNMMTQQK; listed as Arabidopsis thaliana)", "values": [{"measurement": "auxin-inducible degradation of truncated AtIAA7 degron", "setting": "[3]", "result": "similarly to miniIAA7"}]}
{"molecule": "miniAID: mAID degron of 65 amino acids corresponding to AAs 68-132 of AtIAA17 (SEQ ID NO: 3)", "values": [{"measurement": "degradation of tagged seipin without IAA addition", "setting": "[4]", "result": "severely degraded"}]}
